row,melting point [°C],SMILES
1,203 to 205,O=C(O)c1ccc(NCCOc2ccc(Cl)cc2Cl)cc1
2,166 to 168,O=C1O[C@H](CO)CN1c1ccc(C2CCCCC2)cc1
3,176 to 177,O=C(NC1CCCCC1)NS(=O)(=O)c1ccc(CCNC(=O)N2CCC3=C(CCCC3)C2=O)cc1
4,128 to 132,O=C1c2ccccc2C(=O)N1CCOc1cccc2c1CCC2
5,151 to 153,CC(=O)OCCC1CCCN(C(=O)c2ccc(NC(=O)c3ccccc3Cl)nc2)c2ccc(Cl)cc21 (centres undefined)
6,82.2 to 84.2,CCCCOCCOc1ccc(-c2cnc(N3CCC(COC(C)=O)C3)c(/C=C(\C)C(=O)O)c2)cc1 (centres undefined)
7,199,OP(O)C(NC(c1ccccc1)c1ccccc1)C1CCCCC1 (centres undefined)
8,148 to 149,CS(=O)(=O)c1ccc(-c2[nH]nc(C(=O)CCCO[N+](=O)[O-])c2-c2ccc(C#N)cc2)cc1
9,206 to 208,CC(=O)NCCc1ccc(C=CC(=O)O)cc1
10,104,CC(=O)OC1CC2=CCC3C4CCC(C(C)CS(=O)(=O)c5ccccc5)C4(C)CCC3C2(C)C(OC(C)=O)C1 (centres undefined)
11,94,CCOC(=O)Cc1ccc(SCc2cc(C)ccc2C(=O)O)cc1
12,138 to 141,CN(CCc1ccc([N+](=O)[O-])cc1)C1Cc2ccc([N+](=O)[O-])cc2C1 (centres undefined)
13,272 to 274,O=C(O)c1cccc(-n2cnc3cc(-c4ccoc4)ccc32)c1
14,105 to 108,CC(C)Nc1cccnc1N1CCN(C(=O)c2ccc(C(=O)NCCCn3ccnc3)cn2)CC1
15,151 to 153,CC(C)(C)OC(=O)Nc1cccc(C(=O)OCc2ccccc2)c1
16,148 to 149,O=C(CCn1ccnc1)N1c2ccccc2S(=O)c2ccc(Cl)cc21 (centres undefined)
17,166 to 167,Cc1c(NC(=O)c2ccc(-c3ccc(Cl)s3)cc2F)ccc2cc(CN3CCCCCC3)cnc12
18,108 to 110,CC(=O)c1ccc(OCCCN2CCC(c3noc4cc(F)ccc34)CC2)c(CC(N)=O)c1
19,150 to 151,CN(C)CC1CCN(c2nc(N3CCCCC3)c3ncnc(N(C)Cc4cccc5ccccc45)c3n2)CC1
20,150 to 153,O=C1CCN(C(=O)Cl)c2cc(Cl)ccc21
21,140 to 141,CC(C)N1N=C(c2ccc3c(c2)CCN(C2CCC2)CC3)CCC1=O
22,88 to 94,Cc1cccc(NC(=O)N2CCN(CCc3ccc(-c4cccc(N)n4)cc3)CC2)c1
23,148 to 151,CC(=O)OCc1nccc(OCCCOc2ccc3ncc([N+](=O)[O-])n3n2)c1C
24,99 to 100,O=C1CCC(CCC(=O)OCc2ccccc2Cl)N1 (centres undefined)
25,201 to 210,O=C(Cc1c[nH]c2ccccc12)N1CCN(C(=O)c2cc(C(F)(F)F)cc(C(F)(F)F)c2)[C@H](Cc2ccccc2)C1
26,118 to 119,CC(C)(C)CN1C(=O)C2CC2(c2ccc(N)cc2)C1=O (centres undefined)
27,170 to 172,C=CC(=O)N1C/C(=C\c2ccc([N+](=O)[O-])cc2)C(=O)/C(=C/c2ccc([N+](=O)[O-])cc2)C1
28,130 to 132,O=C(O)[C@H](CCc1ccccc1)NS(=O)(=O)c1ccc2oc3ccccc3c2c1

# Further lines, the molecule ahead of its results:
row,SMILES,melting point [°C]
1,Cc1coc(C)c1N(C)c1cc(C(=O)N(C)C)cc2c1nc(C)n2C,163 to 164
2,CC(=O)C1CCC2C3CCC4CC(O)C(N5CC(C)OC(C)C5)CC4(C)C3C(=O)CC12C (centres undefined),172 to 174
3,Clc1nc(-c2ccco2)c2ncn(Cc3ccc(Cl)c(Cl)c3)c2n1,191 to 193
4,Cc1nnc(-c2ccnc(N)c2)o1,216 to 217
5,O=C(O)COc1c2ccccc2c(-c2cc(Br)c(OC(Cc3ccccc3)C(=O)O)c(Br)c2)c2c1sc1ccccc12 (centres undefined),110 to 120
6,CCCCN(C=O)C1CC(C)(C)N(O)C(C)(C)C1,77 to 79
7,OCCN1CCN(c2ccc3nc(-c4ccc(Cl)s4)c(-c4ccncc4)n3n2)CC1,216 to 218
8,CCC1C(=O)N(c2ccccc2)C(=S)N1c1ccc(Oc2ccccc2)cc1 (centres undefined),158 to 159
9,CC(=O)Nc1cc(Oc2ccc3c(C(=O)Nc4cc(-n5cnc(C)c5)cc(C(F)(F)F)c4)cccc3c2)ncn1,291 to 293
10,FC(F)(F)/C(=C(\c1ccccc1)c1ccc(OCc2ccccc2)cc1)c1ccccc1,128 to 129
11,Cc1oc(-c2ccccc2)nc1CCOc1ccc(CCl)c2sccc12,144 to 145
12,CCc1nc(Br)c(Br)[nH]1,149 to 150
13,COc1ccc(C(=O)c2ccc3cc(OC)ccc3c2)c(F)c1,120 to 122
14,CCCCCCCCCCCC#Cc1ccoc1C=O,56 to 57
15,O=C(CCNC(=O)[C@H](Cc1ccc(-c2ccccc2)cc1)NCP(=O)(Oc1ccccc1)Oc1ccccc1)Oc1ccc2c(c1)CCC2,89 to 91
16,CN(C)C(=O)C(OCc1ccc(-c2ccc(Cl)cc2)cc1)C(F)(F)F (centres undefined),103 to 107
17,O=C(O)c1cc(Cn2cc(C3c4ccccc4C=Cc4ccccc43)c(=S)[nH]c2=O)ccc1O,> 240
18,COc1ccc(CNC(=O)c2c(C)c([N+](=O)[O-])cc3nc(OC)c(OC)nc23)cc1,187 to 189
19,N#CCNC(=O)c1cccc2ccccc12,160 to 163
20,COc1c(C(=O)NC2CN3CCC2CC3)cc(Cl)c2c1CCN2 (centres undefined),107 to 109
21,COc1ccc(OCc2ccccc2)cc1N,81

row,SMILES,melting point [°C]
1,CCCc1c(OCCC(=O)O)ccc(C(C)=O)c1O,142 to 146
2,N#Cc1c(N)cccc1[N+](=O)[O-],196 to 198
3,CCCCCCCc1ccc2cc(-c3ncc(CC)cn3)ccc2c1,62.3 to 63.1
4,CC(=O)Nc1c(CC(=O)O)c2ccccc2n1C,200 to 206
5,Cn1c(-c2ccccn2)cc(O)c(C(=N)c2ccccc2)c1=O,242 to 245
6,CCCOc1ccccc1-c1nc(CO)c[nH]1,90 to 92
7,C=CCOC(=O)NC12CC3CC(CC(C3)C1)C2,56 to 58
8,O=S1(=O)N=CN(C2CC2)c2ccccc21,191 to 194
9,Cc1ccc(SCc2ncon2)cc1,53
10,COc1cc(F)cc(-c2ccc3c(c2)C(C)(C)OC(=S)N3)c1,170 to 171
11,Cc1[nH]cnc1/C=C/C(=O)c1c(C)sc2ccccc12,154 to 156
12,COc1ccccc1NC(=O)c1ccc([N+](=O)[O-])cc1,146 to 147
13,CNC(=O)Nc1cccc(C(=S)NC(C)C)c1,175 to 178
14,CC(C)OC(=O)n1c(Cc2ccccc2)noc1=O,80
15,CCN(CC)c1ccc(-c2cn(-c3ccc(C4=C(C#N)C(=C(C#N)C#N)OC4(C)C)cc3)nn2)cc1,275
16,OCCc1c[nH]c2ccc(O)cc12,98 to 102
17,COC(=O)c1cccc2c(C#N)c(OC)ccc12,210 to 211
18,CC(C)(COC(=O)c1cc(Cl)c(O)c(Cl)c1)Cc1ccc(CC(C)(C)COC(=O)c2cc(Cl)c(O)c(Cl)c2)cc1,203 to 204
19,CC(C)C(C)(C)NC(=S)Nc1cc(Cl)cc(Cl)c1,132 to 134
20,COc1ccc(Nc2ccc(OCc3ccccc3)cc2)c(C(C)=O)c1,80 to 81.5
